# Results as given in ChEMBL document CHEMBL3885861, “Open TG-GATES”.
# Species on record: Rattus norvegicus
# Test: Open TG-GATES - Regimen: Daily Repeat
# Assay type: toxicity, organism-based, Sprague-Dawley
# Design: regimen Daily Repeat, gender Male, age 6 weeks
# Conditions: in vivo, po, route gavage; for A/G / ALP / ALT / AST / BUN / CRE / Ca / Cl / DBIL / GLC / IP / K / LDH / Na / PL / RALB / TBIL / TC / TG / TP / gamma-GTP: tissue Plasma; for APTT / Bas / Eos / Fbg / Hb / Ht / Lym / MCH / MCHC / MCV / Mono / Neu / PT / Plat / RBC / Ret / WBC: tissue Blood; for KIDNEY_L / KIDNEY_R / KIDNEY_TOTAL: tissue Kidney; for LIVER: tissue Liver
# [1] = 1 mg/kg, […], dose level Low, time 14 day
# [2] = 1 mg/kg, […], dose level Low, time 28 day
# [3] = 2 mg/kg, 72 h, dose level Middle, time 3 day
# [4] = 2 mg/kg, […], dose level Middle, time 7 day
# [5] = 2 mg/kg, […], dose level Middle, time 14 day
# [6] = 2 mg/kg, […], dose level Middle, time 28 day
# [7] = 5 mg/kg, 72 h, dose level High, time 3 day
# [8] = 5 mg/kg, […], dose level High, time 7 day
# [9] = 5 mg/kg, […], dose level High, time 14 day
compound,measurement,setting,value
COc1ccc2c(c1)c(CC(=O)O)c(C)n2C(=O)c1ccc(Cl)cc1 [INDOMETHACIN],A/G,[1],1.8
same,ALP,[1],725.6 IU/L
same,ALT,[1],33.6 IU/L
same,AST,[1],60.6 IU/L
same,BUN,[1],19.6 mg/dL
same,CRE,[1],0.6 mg/dL
same,Ca,[1],10.5 mg/dL
same,Cl,[1],105.6 meq/L
same,DBIL,[1],0.004 mg/dL
same,GLC,[1],194.8 mg/dL
same,IP,[1],8.1 mg/dL
same,K,[1],4.5 meq/L
same,LDH,[1],87.2 IU/L
same,Na,[1],139.4 meq/L
same,PL,[1],165.2 mg/dL
same,RALB,[1],4.2 g/dL
same,TBIL,[1],0.3 mg/dL
same,TC,[1],81.2 mg/dL
same,TG,[1],161 mg/dL
same,TP,[1],6.5 g/dL
same,gamma-GTP,[1],1.4 IU/L
same,A/G,[2],1.9
same,ALP,[2],695.6 IU/L
same,ALT,[2],31 IU/L
same,AST,[2],62.6 IU/L
same,BUN,[2],21.6 mg/dL
same,CRE,[2],0.7 mg/dL
same,Ca,[2],10.6 mg/dL
same,Cl,[2],106.6 meq/L
same,DBIL,[2],0.008 mg/dL
same,GLC,[2],203.8 mg/dL
same,IP,[2],7.8 mg/dL
same,K,[2],4.2 meq/L
same,LDH,[2],101.8 IU/L
same,Na,[2],139.6 meq/L
same,PL,[2],157.8 mg/dL
same,RALB,[2],4.2 g/dL
same,TBIL,[2],0.3 mg/dL
same,TC,[2],77.8 mg/dL
same,TG,[2],178.4 mg/dL
same,TP,[2],6.5 g/dL
same,gamma-GTP,[2],1.2 IU/L
same,TERMINAL_BW,[3],238.9 g
same,APTT,[3],16 s
same,Bas,[3],0%
same,Eos,[3],0.6%
same,Fbg,[3],218.2 mg/dL
same,Hb,[3],13.5 g/dL
same,Ht,[3],40.5%
same,Lym,[3],82.2%
same,MCH,[3],21.1 pg
same,MCHC,[3],33.4%
same,MCV,[3],63.3 fL
same,Mono,[3],6.4%
same,Neu,[3],10.8%
same,PT,[3],11.1 s
same,Plat,[3],112.9 x10_4/uL
same,RBC,[3],638.8 x10_4/ul
same,Ret,[3],7.1%
same,WBC,[3],126.4 x10_2/uL
same,KIDNEY_L,[3],1.1 g
same,KIDNEY_R,[3],1.1 g
same,KIDNEY_TOTAL,[3],2.1 g
same,LIVER,[3],11.6 g
same,A/G,[3],2.1
same,ALP,[3],1212.4 IU/L
same,ALT,[3],32.8 IU/L
same,AST,[3],62 IU/L
same,BUN,[3],17 mg/dL
same,CRE,[3],0.6 mg/dL
same,Ca,[3],10.5 mg/dL
same,Cl,[3],107.2 meq/L
same,DBIL,[3],0.058 mg/dL
same,GLC,[3],199.6 mg/dL
same,IP,[3],8.3 mg/dL
same,K,[3],4.9 meq/L
same,LDH,[3],91.6 IU/L
same,Na,[3],139.6 meq/L
same,PL,[3],143.8 mg/dL
same,RALB,[3],3.9 g/dL
same,TBIL,[3],0.4 mg/dL
same,TC,[3],78.2 mg/dL
same,TG,[3],64.8 mg/dL
same,TP,[3],5.7 g/dL
same,gamma-GTP,[3],1 IU/L
same,TERMINAL_BW,[4],284.3 g
same,TERMINAL_BW,[5],341.8 g
same,TERMINAL_BW,[6],428.5 g
same,APTT,[4],16.5 s
same,Bas,[4],0%
same,Eos,[4],1%
same,Fbg,[4],240 mg/dL
same,Hb,[4],13.7 g/dL
same,Ht,[4],41.4%
same,Lym,[4],79.8%
same,MCH,[4],20.6 pg
same,MCHC,[4],33.1%
same,MCV,[4],62.2 fL
same,Mono,[4],8%
same,Neu,[4],11.6%
same,PT,[4],11.7 s
same,Plat,[4],112.9 x10_4/uL
same,RBC,[4],666.6 x10_4/ul
same,Ret,[4],6.2%
same,WBC,[4],126.6 x10_2/uL
same,APTT,[5],16.2 s
same,Bas,[5],0%
same,Eos,[5],0.8%
same,Fbg,[5],236.6 mg/dL
same,Hb,[5],14.2 g/dL
same,Ht,[5],43.1%
same,Lym,[5],86.4%
same,MCH,[5],20.5 pg
same,MCHC,[5],32.9%
same,MCV,[5],62.4 fL
same,Mono,[5],5.8%
same,Neu,[5],7.2%
same,PT,[5],11.8 s
same,Plat,[5],114.5 x10_4/uL
same,RBC,[5],689.8 x10_4/ul
same,Ret,[5],5.1%
same,WBC,[5],134.6 x10_2/uL
same,APTT,[6],16.9 s
same,Bas,[6],0%
same,Eos,[6],1%
same,Fbg,[6],255.2 mg/dL
same,Hb,[6],15.1 g/dL
same,Ht,[6],45.3%
same,Lym,[6],83.6%
same,MCH,[6],19.6 pg
same,MCHC,[6],33.4%
same,MCV,[6],58.6 fL
same,Mono,[6],3.8%
same,Neu,[6],11.4%
same,PT,[6],11.9 s
same,Plat,[6],101.6 x10_4/uL
same,RBC,[6],774.2 x10_4/ul
same,Ret,[6],3.1%
same,WBC,[6],136.4 x10_2/uL
same,KIDNEY_L,[4],1.2 g
same,KIDNEY_R,[4],1.2 g
same,KIDNEY_TOTAL,[4],2.4 g
same,KIDNEY_L,[5],1.3 g
same,KIDNEY_R,[5],1.3 g
same,KIDNEY_TOTAL,[5],2.6 g
same,KIDNEY_L,[6],1.5 g
same,KIDNEY_R,[6],1.5 g
same,KIDNEY_TOTAL,[6],3 g
same,LIVER,[4],14.5 g
same,LIVER,[5],16.3 g
same,LIVER,[6],18.6 g
same,A/G,[4],2
same,ALP,[4],1041.2 IU/L
same,ALT,[4],33.2 IU/L
same,AST,[4],61.4 IU/L
same,BUN,[4],19.4 mg/dL
same,CRE,[4],0.6 mg/dL
same,Ca,[4],11.3 mg/dL
same,Cl,[4],106.4 meq/L
same,DBIL,[4],0.006 mg/dL
same,GLC,[4],192.2 mg/dL
same,IP,[4],8.4 mg/dL
same,K,[4],4.8 meq/L
same,LDH,[4],105.8 IU/L
same,Na,[4],140 meq/L
same,PL,[4],163.8 mg/dL
same,RALB,[4],4.1 g/dL
same,TBIL,[4],0.4 mg/dL
same,TC,[4],88 mg/dL
same,TG,[4],134.2 mg/dL
same,TP,[4],6.3 g/dL
same,gamma-GTP,[4],1 IU/L
same,A/G,[5],1.9
same,ALP,[5],898.8 IU/L
same,ALT,[5],32 IU/L
same,AST,[5],53.2 IU/L
same,BUN,[5],22.6 mg/dL
same,CRE,[5],0.6 mg/dL
same,Ca,[5],10.8 mg/dL
same,Cl,[5],106.2 meq/L
same,DBIL,[5],0.006 mg/dL
same,GLC,[5],201.2 mg/dL
same,IP,[5],8.3 mg/dL
same,K,[5],4.7 meq/L
same,LDH,[5],89.8 IU/L
same,Na,[5],139.6 meq/L
same,PL,[5],151.4 mg/dL
same,RALB,[5],4.1 g/dL
same,TBIL,[5],0.3 mg/dL
same,TC,[5],72.2 mg/dL
same,TG,[5],141.2 mg/dL
same,TP,[5],6.3 g/dL
same,gamma-GTP,[5],1 IU/L
same,A/G,[6],1.7
same,ALP,[6],678.8 IU/L
same,ALT,[6],31.6 IU/L
same,AST,[6],65 IU/L
same,BUN,[6],21.4 mg/dL
same,CRE,[6],0.7 mg/dL
same,Ca,[6],10.7 mg/dL
same,Cl,[6],107 meq/L
same,DBIL,[6],0.004 mg/dL
same,GLC,[6],185.2 mg/dL
same,IP,[6],7.5 mg/dL
same,K,[6],4.4 meq/L
same,LDH,[6],90.4 IU/L
same,Na,[6],140.4 meq/L
same,PL,[6],157.4 mg/dL
same,RALB,[6],4.3 g/dL
same,TBIL,[6],0.3 mg/dL
same,TC,[6],80 mg/dL
same,TG,[6],179.2 mg/dL
same,TP,[6],6.8 g/dL
same,gamma-GTP,[6],1.8 IU/L
same,TERMINAL_BW,[7],240.2 g
same,APTT,[7],16.8 s
same,Bas,[7],0%
same,Eos,[7],0.6%
same,Fbg,[7],308.4 mg/dL
same,Hb,[7],12.7 g/dL
same,Ht,[7],38%
same,Lym,[7],68.4%
same,MCH,[7],21.5 pg
same,MCHC,[7],33.5%
same,MCV,[7],64.4 fL
same,Mono,[7],12.4%
same,Neu,[7],18.6%
same,PT,[7],11.1 s
same,Plat,[7],98 x10_4/uL
same,RBC,[7],589.8 x10_4/ul
same,Ret,[7],7.9%
same,WBC,[7],137.8 x10_2/uL
same,KIDNEY_L,[7],1.1 g
same,KIDNEY_R,[7],1.1 g
same,KIDNEY_TOTAL,[7],2.2 g
same,LIVER,[7],12.4 g
same,A/G,[7],1.7
same,ALP,[7],739.2 IU/L
same,ALT,[7],29.8 IU/L
same,AST,[7],54 IU/L
same,BUN,[7],16.2 mg/dL
same,CRE,[7],0.6 mg/dL
same,Ca,[7],10.5 mg/dL
same,Cl,[7],107.6 meq/L
same,DBIL,[7],0.038 mg/dL
same,GLC,[7],191.6 mg/dL
same,IP,[7],8.3 mg/dL
same,K,[7],4.6 meq/L
same,LDH,[7],160.4 IU/L
same,Na,[7],140.4 meq/L
same,PL,[7],147 mg/dL
same,RALB,[7],3.4 g/dL
same,TBIL,[7],0.3 mg/dL
same,TC,[7],76.2 mg/dL
same,TG,[7],135.4 mg/dL
same,TP,[7],5.5 g/dL
same,gamma-GTP,[7],1.6 IU/L
same,TERMINAL_BW,[8],244 g
same,APTT,[8],18.4 s
same,Bas,[8],0%
same,Eos,[8],0.8%
same,Fbg,[8],377 mg/dL
same,Hb,[8],11.7 g/dL
same,Ht,[8],35%
same,Lym,[8],51.5%
same,MCH,[8],20.4 pg
same,MCHC,[8],33.4%
same,MCV,[8],61.1 fL
same,Mono,[8],12.2%
same,Neu,[8],36%
same,PT,[8],11.8 s
same,Plat,[8],143.2 x10_4/uL
same,RBC,[8],571.8 x10_4/ul
same,Ret,[8],10.2%
same,WBC,[8],128.2 x10_2/uL
same,PT,[9],11.3 s
same,KIDNEY_L,[8],1.1 g
same,KIDNEY_R,[8],1.1 g
same,KIDNEY_TOTAL,[8],2.2 g
same,LIVER,[8],11.6 g
same,A/G,[8],1.2
same,ALP,[8],1313 IU/L
same,ALT,[8],31.2 IU/L
same,AST,[8],91.5 IU/L
same,BUN,[8],19.8 mg/dL
same,CRE,[8],0.6 mg/dL
same,Ca,[8],10.8 mg/dL
same,Cl,[8],102.2 meq/L
same,DBIL,[8],0.1 mg/dL
same,GLC,[8],169.8 mg/dL
same,IP,[8],11.3 mg/dL
same,K,[8],6.1 meq/L
same,LDH,[8],180.8 IU/L
same,Na,[8],133.5 meq/L
same,PL,[8],135.8 mg/dL
same,RALB,[8],2.9 g/dL
same,TBIL,[8],0.4 mg/dL
same,TC,[8],71 mg/dL
same,TG,[8],106.5 mg/dL
same,TP,[8],5.6 g/dL
same,gamma-GTP,[8],5.8 IU/L
same,TBIL,[9],0.3 mg/dL
same,TC,[9],66.5 mg/dL
